{"source": "ChEMBL document CHEMBL6178018", "about": "“Design of an Oral STING Agonist through Intramolecular Hydrogen Bond Ring Mimicking to Achieve Complete Tumor Regression” (J Med Chem, 2025)", "key": {"[1]": {"target": "T1, Stimulator of interferon genes protein (Homo sapiens, UniProt Q86WV6)", "assay": "Agonist activity at human STING HAQ variant in human THP1-Blue ISG cells assessed as fold change in stimulation activity measured after 24 hrs incubation by QUANTI-Blue based microplate reader", "assay_type": "cell-based"}, "[2]": {"target": "T1, Stimulator of interferon genes protein", "assay": "Binding affinity to wild type His-tagged STING (unknown origin) measured after 3 hrs incubation by HTRF assay"}, "[3]": {"target": "T1, Stimulator of interferon genes protein", "assay": "Agonist activity at STING R232 mutant (unknown origin) expressed in human THP1-Dual cells assessed as fold change in stimulation activity measured after 24 hrs incubation by QUANTI-Luc4 based microplate reader", "assay_type": "cell-based"}, "[4]": {"target": "T2, Stimulator of interferon genes protein (Mus musculus, UniProt Q3TBT3)", "T2 sequence (Q3TBT3 whole entry)": "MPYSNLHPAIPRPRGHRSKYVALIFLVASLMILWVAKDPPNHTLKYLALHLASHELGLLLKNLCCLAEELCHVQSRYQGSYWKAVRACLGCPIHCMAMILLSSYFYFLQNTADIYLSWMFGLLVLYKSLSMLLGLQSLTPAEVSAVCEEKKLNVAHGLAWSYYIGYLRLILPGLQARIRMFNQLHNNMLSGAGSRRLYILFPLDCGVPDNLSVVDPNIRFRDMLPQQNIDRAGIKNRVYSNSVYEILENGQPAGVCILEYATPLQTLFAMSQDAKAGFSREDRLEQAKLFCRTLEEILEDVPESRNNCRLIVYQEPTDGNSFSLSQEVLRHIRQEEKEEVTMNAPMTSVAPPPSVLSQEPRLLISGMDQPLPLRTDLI", "assay": "Agonist activity at mouse STING expressed in human THP1-Dual cells assessed as fold change in stimulation activity measured after 24 hrs incubation by QUANTI-Luc4 based microplate reader", "assay_type": "cell-based"}}}
{"smiles": "CONC(=O)C(F)(F)CNC(=O)c1sc2cc(OC)c(Br)cc2c1F", "values": [{"measurement": "EC50", "setting": "[1]", "result": "> 100", "unit": "µM"}]}
{"smiles": "COc1cc2sc(C(=O)NCCC(=O)O)c(Br)c2cc1OC", "values": [{"measurement": "EC50", "setting": "[1]", "result": 47.2, "unit": "µM"}]}
{"smiles": "CCC(CNC(=O)c1sc2cc(OC)c(OC(F)F)cc2c1F)C(=O)O", "note": "(stereo not given)", "values": [{"measurement": "EC50", "setting": "[1]", "result": "> 100", "unit": "µM"}]}
{"smiles": "COc1cc2sc(C(=O)NCCB(O)O)c(F)c2cc1OC", "values": [{"measurement": "EC50", "setting": "[1]", "result": "> 100", "unit": "µM"}]}
{"smiles": "CCC(CNC(=O)c1sc2cc(Br)c(OC)cc2c1F)C(=O)O", "note": "(stereo not given)", "values": [{"measurement": "IC50", "setting": "[2]", "result": "> 100", "unit": "µM"}, {"measurement": "EC50", "setting": "[3]", "result": "> 100", "unit": "µM"}, {"measurement": "EC50", "setting": "[1]", "result": 13.2, "unit": "µM"}, {"measurement": "EC50", "setting": "[4]", "result": "> 100", "unit": "µM"}]}
{"smiles": "COc1cc2[se]c(C(=O)NCC(C)C(=O)O)c(F)c2cc1OC", "note": "(stereo not given)", "values": [{"measurement": "EC50", "setting": "[3]", "result": 26.1, "unit": "µM"}, {"measurement": "EC50", "setting": "[1]", "result": 5.7, "unit": "µM"}, {"measurement": "EC50", "setting": "[4]", "result": 27, "unit": "µM"}]}
{"smiles": "COc1cc2sc(C(=O)NCC(C)C(=O)O)c(F)c2cc1Br", "note": "(stereo not given)", "values": [{"measurement": "EC50", "setting": "[1]", "result": "> 100", "unit": "µM"}]}
{"smiles": "COc1cc2sc(C(=O)NCCC(O)(C(F)(F)F)C(F)(F)F)c(F)c2cc1OC", "values": [{"measurement": "EC50", "setting": "[1]", "result": "> 100", "unit": "µM"}]}
{"smiles": "COc1cc2sc(C(=O)NCCC(=O)NS(C)(=O)=O)c(F)c2cc1OC", "values": [{"measurement": "EC50", "setting": "[1]", "result": "> 100", "unit": "µM"}]}
{"smiles": "COc1cc2sc(C(=O)NCC(=O)O)c(F)c2cc1OC", "values": [{"measurement": "EC50", "setting": "[1]", "result": "> 100", "unit": "µM"}]}
{"smiles": "COc1cc2sc(C(=O)NCC(C)C(=O)O)c(F)c2cc1OC", "note": "(racemic)", "values": [{"measurement": "IC50", "setting": "[2]", "result": 30.6, "unit": "µM"}, {"measurement": "EC50", "setting": "[3]", "result": 33.1, "unit": "µM"}, {"measurement": "EC50", "setting": "[1]", "result": 7.1, "unit": "µM"}, {"measurement": "EC50", "setting": "[4]", "result": 25.1, "unit": "µM"}]}
{"smiles": "COc1cc2sc(C(=O)NCCCC(=O)O)c(F)c2cc1OC", "values": [{"measurement": "EC50", "setting": "[1]", "result": 54.6, "unit": "µM"}]}
{"smiles": "COc1cc2sc(C(=O)NCC(C)(C)C(=O)O)c(F)c2cc1OC", "values": [{"measurement": "EC50", "setting": "[1]", "result": "> 100", "unit": "µM"}]}
{"smiles": "COc1cc2sc(C(=O)NCC(F)(F)C(=O)O)c(F)c2cc1Br", "values": [{"measurement": "EC50", "setting": "[1]", "result": "> 100", "unit": "µM"}]}
{"smiles": "COc1cc2sc(C(=O)NCCC(=O)O)c(C)c2cc1OC", "values": [{"measurement": "EC50", "setting": "[1]", "result": "> 100", "unit": "µM"}]}
{"smiles": "COc1cc2sc(C(=O)NCCc3nnn[nH]3)c(F)c2cc1OC", "values": [{"measurement": "EC50", "setting": "[1]", "result": "> 100", "unit": "µM"}]}
{"smiles": "C=Cc1cc2c(F)c(C(=O)NCCC(=O)O)sc2cc1OC", "values": [{"measurement": "EC50", "setting": "[1]", "result": "> 100", "unit": "µM"}]}
{"smiles": "C#Cc1c(C(=O)NCCC(=O)O)sc2cc(OC)c(OC)cc12", "values": [{"measurement": "EC50", "setting": "[1]", "result": "> 100", "unit": "µM"}]}
{"smiles": "COc1cc2sc(C(=O)NCC3(C(=O)O)CC3)c(F)c2cc1OC", "values": [{"measurement": "EC50", "setting": "[1]", "result": "> 100", "unit": "µM"}]}
{"smiles": "COc1ccc2c(F)c(C(=O)NCCC(=O)O)sc2c1", "values": [{"measurement": "EC50", "setting": "[1]", "result": "> 100", "unit": "µM"}]}
{"smiles": "CC[C@@H](CNC(=O)c1sc2cc(OC)c(OC)cc2c1F)C(=O)O", "values": [{"measurement": "IC50", "setting": "[2]", "result": 65.5, "unit": "µM"}, {"measurement": "EC50", "setting": "[3]", "result": 51.3, "unit": "µM"}, {"measurement": "EC50", "setting": "[1]", "result": 11.3, "unit": "µM"}, {"measurement": "EC50", "setting": "[4]", "result": 45.9, "unit": "µM"}]}
{"smiles": "COc1cc2sc(C(=O)NCCC(=O)O)c(I)c2cc1OC", "values": [{"measurement": "EC50", "setting": "[1]", "result": "> 100", "unit": "µM"}]}
{"smiles": "COc1cc2sc(C(=O)NCCS(N)(=O)=O)c(F)c2cc1OC", "values": [{"measurement": "EC50", "setting": "[1]", "result": "> 100", "unit": "µM"}]}
{"smiles": "COc1cc2sc(C(=O)NCCC(=O)O)c(F)c2cc1F", "values": [{"measurement": "EC50", "setting": "[1]", "result": "> 100", "unit": "µM"}]}
